What was measured:
Test in all cases: combination Emax (second highest fraction inhibited in the dose matrix, 72 h); higher = more inhibition; extreme values may be limits of the assay
[1] = system: HCT-15 (Colorectal Carcinoma)
Method in brief: (§1)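 Cell lines in DMEM/F12 or RPMI with 10% FBS were plated in 1536-well plates, held 24 hours at 37°C, 5% CO2, then given two-drug dose matrices for 72 hours (DMSO typically 0.2%). Viability was read by CellTiter-Glo 2.0 luminescence and scaled as inhibition from 0 (vehicle wells) to 1 (blank wells). Combination Emax is the second-highest inhibition in the matrix; Bliss excess is observed combination effect minus expected EA + EB − EA·EB, EA and EB being single-agent effects.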

[2] = system: LB996-RCC (Kidney Carcinoma)
Method in brief: as §1

[3] = system: L-1236 (Hodgkin's Lymphoma)
Method in brief: as §1

[4] = system: HEC-1 (Endometrial Carcinoma)
Method in brief: as §1

[5] = system: SF268 (Low Grade Glioma)
Method in brief: as §1

[6] = system: RCM-1 (Colorectal Carcinoma)
Method in brief: as §1

[7] = system: NCI-H2342 (Lung Adenocarcinoma)
Method in brief: as §1

[8] = system: LXF-289 (Lung Adenocarcinoma)
Method in brief: as §1

[9] = system: NCI-H446 (Small Cell Lung Carcinoma)
Method in brief: as §1

[10] = system: PC-3_[JPC-3] (Lung Adenocarcinoma)
Method in brief: as §1

[11] = system: RERF-GC-1B (Gastric Carcinoma)
Method in brief: as §1

[12] = system: PSN1 (Pancreatic Carcinoma)
Method in brief: as §1

[13] = system: KE-37 (T-Lymphoblastic Leukemia)
Method in brief: as §1

[14] = system: SK-PN-DW (Other Solid Carcinomas)
Method in brief: as §1

[15] = system: VAL (B-Cell Non-Hodgkin's Lymphoma)
Method in brief: as §1

[16] = system: GP5d (Colorectal Carcinoma)
Method in brief: as §1

[17] = system: LN-229 (Glioblastoma)
Method in brief: as §1

[18] = system: OPM-2 (Plasma Cell Myeloma)
Method in brief: as §1

[19] = system: HSC-39 (Gastric Carcinoma)
Method in brief: as §1

[20] = system: FADU (Head and Neck Carcinoma)
Method in brief: as §1

Question: With CN(CCO)CC[C@H](CSc1ccccc1)Nc1ccc(S(=O)(=O)NC(=O)c2ccc(N3CCC([C@@H](O)c4ccccc4-c4ccc(Cl)cc4)CC3)cc2)cc1S(=O)(=O)C(F)(F)F [AZD4320] + CN(C)CCCOc1ccc(-c2ccc3ncc4c(c3c2)n(C2CCOCC2)c(=O)n4C)cn1 [AZD0156] (first compound max 1 µM, 7x7, partner max 1 µM) as the compound, how does the “combination Emax” value [1] read?
Answer: The value was 0.111.

Question: What about the “combination Emax” value [2] of the same compound?
Answer: The value was 0.227.

Question: And the “combination Emax” value [3]?
Answer: Its value is 0.992.

Question: And the “combination Emax” value [4]?
Answer: Its value is 0.372.

Question: What about the “combination Emax” value [5] of the same compound?
Answer: Its value is 0.291.

Question: What about the “combination Emax” value [6] of the same compound?
Answer: The value was 0.435.

Question: And the “combination Emax” value [7]?
Answer: Its value is 0.27.

Question: And the “combination Emax” value [8]?
Answer: The value was 0.182.

Question: What about the “combination Emax” value [9] of the same compound?
Answer: Its value is 0.663.

Question: What about the “combination Emax” value [10] of the same compound?
Answer: The value was 0.238.

Question: What about the “combination Emax” value [11] of the same compound?
Answer: The value was 0.379.

Question: And the “combination Emax” value [12]?
Answer: Its value is 0.315.

Question: And the “combination Emax” value [13]?
Answer: The value was 1.

Question: What about the “combination Emax” value [14] of the same compound?
Answer: The value was 0.326.

Question: What about the “combination Emax” value [15] of the same compound?
Answer: Its value is 1.

Question: What about the “combination Emax” value [16] of the same compound?
Answer: The value was 0.323.

Question: And the “combination Emax” value [17]?
Answer: The value was 0.142.

Question: What about the “combination Emax” value [18] of the same compound?
Answer: Its value is 0.687.

Question: And the “combination Emax” value [19]?
Answer: Its value is 0.279.

Question: What about the “combination Emax” value [20] of the same compound?
Answer: Its value is 0.124.

Question: Which results are given for CN(CCO)CC[C@H](CSc1ccccc1)Nc1ccc(S(=O)(=O)NC(=O)c2ccc(N3CCC([C@@H](O)c4ccccc4-c4ccc(Cl)cc4)CC3)cc2)cc1S(=O)(=O)C(F)(F)F [AZD4320] + C[C@@H]1COCCN1C2=NC(=NC(=C2)C3(CC3)[S@](=N)(=O)C)C4=C5C=CNC5=NC=C4 [AZD6738] (first compound max 1 µM, 7x7, partner max 10 µM)?
Answer: combination Emax [1]: 0.756; combination Emax [2]: 0.837; combination Emax [3]: 0.992; combination Emax [4]: 0.613; combination Emax [5]: 0.78; combination Emax [6]: 0.862; combination Emax [7]: 0.377; combination Emax [8]: 0.689; combination Emax [9]: 0.941; combination Emax [10]: 0.375; combination Emax [11]: 0.621; combination Emax [12]: 0.453; combination Emax [13]: 1; combination Emax [14]: 0.947; combination Emax [15]: 1; combination Emax [16]: 0.859; combination Emax [17]: 0.797; combination Emax [18]: 0.927; combination Emax [19]: 1; combination Emax [20]: 0.583

Question: Which results are given for CN(CCO)CC[C@H](CSc1ccccc1)Nc1ccc(S(=O)(=O)NC(=O)c2ccc(N3CCC([C@@H](O)c4ccccc4-c4ccc(Cl)cc4)CC3)cc2)cc1S(=O)(=O)C(F)(F)F [AZD4320] + C[C@@H](Nc1cc(F)cc(F)c1)c1cc(C(=O)N(C)C)cc2c(=O)cc(N3CCOCC3)oc12 [AZD8186] (first compound max 1 µM, 7x7, partner max 3 µM)?
Answer: combination Emax [1]: 0.187; combination Emax [2]: 0.654; combination Emax [3]: 0.981; combination Emax [4]: 0.392; combination Emax [5]: 0.66; combination Emax [6]: 0.532; combination Emax [7]: 0.443; combination Emax [8]: 0.348; combination Emax [9]: 0.811; combination Emax [10]: 0.562; combination Emax [11]: 0.549; combination Emax [12]: 0.487; combination Emax [13]: 1; combination Emax [14]: 0.757; combination Emax [15]: 1; combination Emax [16]: 0.644; combination Emax [17]: 0.389; combination Emax [18]: 0.589; combination Emax [19]: 0.62; combination Emax [20]: 0.846

Question: For CN(CCO)CC[C@H](CSc1ccccc1)Nc1ccc(S(=O)(=O)NC(=O)c2ccc(N3CCC([C@@H](O)c4ccccc4-c4ccc(Cl)cc4)CC3)cc2)cc1S(=O)(=O)C(F)(F)F [AZD4320] + Cc1cc2ncnn2cc1Nc1ncc2c(n1)n(C1CCOCC1)c(=O)n2C [AZD7648] (first compound max 1 µM, 7x7, partner max 10 µM), which “combination Emax” value [1] is on record?
Answer: Its value is 0.135.

Question: And the “combination Emax” value [2]?
Answer: Its value is 0.321.

Question: And the “combination Emax” value [3]?
Answer: The value was 0.958.

Question: What about the “combination Emax” value [4] of the same compound?
Answer: The value was 0.337.

Question: And the “combination Emax” value [5]?
Answer: Its value is 0.164.

Question: What about the “combination Emax” value [6] of the same compound?
Answer: The value was 0.351.

Question: What about the “combination Emax” value [7] of the same compound?
Answer: Its value is 0.27.

Question: What about the “combination Emax” value [8] of the same compound?
Answer: The value was 0.216.

Question: And the “combination Emax” value [9]?
Answer: The value was 0.699.

Question: And the “combination Emax” value [10]?
Answer: Its value is 0.243.

Question: What about the “combination Emax” value [11] of the same compound?
Answer: Its value is 0.344.

Question: And the “combination Emax” value [12]?
Answer: The value was 0.315.

Question: What about the “combination Emax” value [13] of the same compound?
Answer: Its value is 1.

Question: And the “combination Emax” value [14]?
Answer: Its value is 0.413.

Question: And the “combination Emax” value [15]?
Answer: The value was 1.

Question: What about the “combination Emax” value [16] of the same compound?
Answer: Its value is 0.295.

Question: What about the “combination Emax” value [17] of the same compound?
Answer: Its value is 0.0793.

Question: And the “combination Emax” value [18]?
Answer: The value was 0.71.

Question: And the “combination Emax” value [19]?
Answer: Its value is 0.367.

Question: And the “combination Emax” value [20]?
Answer: Its value is 0.12.

Question: With CN(CCO)CC[C@H](CSc1ccccc1)Nc1ccc(S(=O)(=O)NC(=O)c2ccc(N3CCC([C@@H](O)c4ccccc4-c4ccc(Cl)cc4)CC3)cc2)cc1S(=O)(=O)C(F)(F)F [AZD4320] + Cn1cnc2c(F)c(Nc3ccc(Br)cc3Cl)c(C(=O)NOCCO)cc21 [Selumetinib] (first compound max 1 µM, 7x7, partner max 3 µM) as the compound, how does the “combination Emax” value [1] read?
Answer: Its value is 0.284.

Question: What about the “combination Emax” value [2] of the same compound?
Answer: Its value is 0.513.

Question: What about the “combination Emax” value [3] of the same compound?
Answer: Its value is 0.999.

Question: What about the “combination Emax” value [4] of the same compound?
Answer: Its value is 0.366.

Question: What about the “combination Emax” value [5] of the same compound?
Answer: The value was 0.69.

Question: What about the “combination Emax” value [6] of the same compound?
Answer: Its value is 0.785.

Question: And the “combination Emax” value [7]?
Answer: The value was 0.423.

Question: What about the “combination Emax” value [8] of the same compound?
Answer: Its value is 0.314.

Question: What about the “combination Emax” value [9] of the same compound?
Answer: Its value is 0.758.

Question: And the “combination Emax” value [10]?
Answer: The value was 0.571.

Question: And the “combination Emax” value [11]?
Answer: The value was 0.716.

Question: And the “combination Emax” value [12]?
Answer: The value was 0.664.

Question: And the “combination Emax” value [13]?
Answer: Its value is 1.

Question: And the “combination Emax” value [14]?
Answer: Its value is 0.684.

Question: And the “combination Emax” value [15]?
Answer: The value was 1.

Question: And the “combination Emax” value [16]?
Answer: The value was 0.9.

Question: What about the “combination Emax” value [17] of the same compound?
Answer: Its value is 0.397.

Question: What about the “combination Emax” value [18] of the same compound?
Answer: The value was 0.556.

Question: And the “combination Emax” value [19]?
Answer: Its value is 0.57.

Question: And the “combination Emax” value [20]?
Answer: Its value is 0.832.

Question: Which results are given for COc1nnc2ccc(N3CCC(c4ccc(OCCN5CCN(C)C(=O)[C@H]5C)cc4)CC3)nn12 [AZD5153] + C=CCn1c(=O)c2cnc(Nc3ccc(N4CCN(C)CC4)cc3)nc2n1-c1cccc(C(C)(C)O)n1 [AZD1775] (first compound max 1 µM, partner max 1 µM)?
Answer: combination Emax [1]: 0.739; combination Emax [2]: 0.835; combination Emax [3]: 0.999; combination Emax [4]: 0.827; combination Emax [5]: 0.637; combination Emax [6]: 0.667; combination Emax [7]: 0.711; combination Emax [8]: 0.813; combination Emax [9]: 0.962; combination Emax [10]: 0.58; combination Emax [11]: 0.77; combination Emax [12]: 0.54; combination Emax [13]: 0.978; combination Emax [14]: 0.762; combination Emax [15]: 0.792; combination Emax [16]: 0.848; combination Emax [17]: 0.431; combination Emax [18]: 1; combination Emax [19]: 0.967; combination Emax [20]: 0.592

Reference: the supplement of paper PMC11061612
